This note sets out measurements from US8741906B2 (priority 2011, dated 2014).

In general, EC50 refers to the midpoint of the concentration-response curve.

The target of one experiment is T1, human CB2 receptors (Homo sapiens, UniProt P34972).
T1 construct: expressed in transfected cells; host or cells: CHO cells
Briefly: functional cAMP assay, human CB2. The class given is cell-based. As to conditions: CHO cells expressing human CB2, cAMP; read-out: human CB2 EC50. On the procedure:
(§1) CHO cells expressing human CB1 or CB2 receptors are seeded 17-24 hours prior to the experiment 50.000 cells per well in a black 96 well plate with flat clear bottom (Corning Costar #3904) in DMEM (Invitrogen No. 31331), 1×HT supplement, with 10% fetal calf serum and incubated at 5% CO2 and 37° C. in a humidified incubator. The growth medium was exchanged with Krebs Ringer Bicarbonate buffer with 1 mM IBMX and incubated at 30° C. for 30 min. Compounds were added to a final assay volume of 100 μl and incubated for 30 min at 30° C. Using the cAMP-Nano-TRF detection kit the assay (Roche Diagnostics) was stopped by the addition of 50 μl lysis reagent (Tris, NaCl, 1.5% Triton X100, 2.5% NP40, 10% NaN3) and 50 μl detection solutions (20 μM mAb Alexa700-cAMP 1:1, and 48 μM Ruthenium-2-AHA-cAMP) and shaken for 2 h at room temperature. The time-resolved energy transfer is measured by a TRF reader (Evotec Technologies GmbH), equipped with a ND:YAG laser as excitation source. The plate is measured twice with the excitation at 355 nm and at the emission with a delay of 100 ns and a gate of 100 ns, total exposure time 10 s at 730 (bandwidth 30 nm) or 645 nm (bandwidth 75 nm), respectively. The FRET signal is calculated as follows: FRET=T730-Alexa730-P(T645-B645) with P=Ru730-B730/Ru645-B645, where T730 is the test well measured at 730 nM, T645 is the test well measured at 645 nm, B730 and B645 are the buffer controls at 730 nm and 645 nm, respectively. cAMP content is determined from the function of a standard curve spanning from 10 μM to 0.13 nM cAMP.
(§2) EC50 values were determined using Activity Base analysis (ID Business Solution, Limited). The EC50 values for a wide range of cannabinoid agonists generated from this assay were in agreement with the values published in the scientific literature.
For orientation: Changes in cAMP serve as a functional read-out for many G protein-coupled receptors.

A further experiment concerns the target T2, human CB1 receptors (Homo sapiens, UniProt P21554).
T2 construct: expressed in transfected cells; host or cells: CHO cells
Briefly: functional cAMP assay, human CB1. The class given is cell-based. On the procedure: as §1, §2

The mark [1] stands for this setting: CHO cells expressing human CB1, cAMP, read-out: human CB1 EC50.

SMILES strings stand for the structures. Like-named read-outs stand apart in the source and are kept apart here.

T2 sequence (P21554 whole entry): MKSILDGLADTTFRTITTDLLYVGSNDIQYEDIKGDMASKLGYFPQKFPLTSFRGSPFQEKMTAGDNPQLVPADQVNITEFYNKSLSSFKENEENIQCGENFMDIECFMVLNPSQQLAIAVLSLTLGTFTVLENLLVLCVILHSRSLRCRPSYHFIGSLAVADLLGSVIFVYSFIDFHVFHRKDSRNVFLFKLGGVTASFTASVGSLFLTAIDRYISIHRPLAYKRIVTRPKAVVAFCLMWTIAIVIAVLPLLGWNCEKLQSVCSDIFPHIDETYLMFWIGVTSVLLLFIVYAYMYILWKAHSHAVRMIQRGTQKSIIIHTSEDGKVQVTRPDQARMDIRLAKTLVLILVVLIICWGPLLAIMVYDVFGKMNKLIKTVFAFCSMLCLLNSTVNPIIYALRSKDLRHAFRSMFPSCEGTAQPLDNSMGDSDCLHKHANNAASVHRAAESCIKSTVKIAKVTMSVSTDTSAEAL
T1 sequence (P34972 whole entry): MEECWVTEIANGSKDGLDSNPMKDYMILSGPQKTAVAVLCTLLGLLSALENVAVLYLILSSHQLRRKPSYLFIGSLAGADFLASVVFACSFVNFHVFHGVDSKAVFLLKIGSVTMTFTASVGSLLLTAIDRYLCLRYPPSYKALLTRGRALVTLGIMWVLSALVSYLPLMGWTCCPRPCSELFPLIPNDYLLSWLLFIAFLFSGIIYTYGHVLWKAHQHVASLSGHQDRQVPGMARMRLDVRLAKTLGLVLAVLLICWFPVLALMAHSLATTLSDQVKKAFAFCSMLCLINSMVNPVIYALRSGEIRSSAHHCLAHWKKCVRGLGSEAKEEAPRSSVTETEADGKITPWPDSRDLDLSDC

For the compound `COC(=O)C1CN(c2nc(C(C)(C)C)nc3c2nnn3Cc2ccccc2Cl)C1` [Example 197, 1-[5-tert-Butyl-3-(2-chloro-benzyl)-3H-[1,2,3]triazolo[4,5-d]pyrimidin-7-yl]-azetidine-3-carboxylic acid methyl ester], the values for the concentration giving a half-maximal response (EC50) at human CB2 receptors and on human CB1 receptors were 257 nM and > 10000 nM, respectively.
With `Cc1noc(Cn2nnc3c(N4CC[C@@](C)(O)C4)nc(C(C)(C)C)nc32)n1` [Example 226-b, (R)-1-(5-tert-butyl-3-((3-methyl-1,2,4-oxadiazol-5-yl)methyl)-3H-[1,2,3]triazolo[4,5-d]pyrimidin-7-yl)-3-methylpyrrolidin-3-ol], the values for the EC50 at human CB2 receptors and at human CB1 receptors (setting [1]) were 233 nM and > 10000 nM, respectively.
On to `CC(C)(C)c1nc(N2CCC(F)(F)C2)c2nnn(Cc3c[nH]nc3C(F)(F)F)c2n1` [Example 135, 5-tert-Butyl-7-(3,3-difluoro-pyrrolidin-1-yl)-3-(3-trifluoromethyl-1H-pyrazol-4-ylmethyl)-3H-[1,2,3]triazolo[4,5-d]pyrimidine], for which the EC50 is 0.4 nM at human CB2 receptors and 1400 nM at human CB1 receptors (setting [1]).
For `CC(C)(C)c1nc(N2CCC(F)(F)C2)c2nnn(Cc3nc(Cl)ccc3Cl)c2n1` [Example 100, 5-tert-Butyl-3-(3,6-dichloro-pyridin-2-ylmethyl)-7-(3,3-difluoro-pyrrolidin-1-yl)-3H-[1,2,3]triazolo[4,5-d]pyrimidine] the same measures were 0.1 nM and 110 nM.
In the case of `C[C@H](Oc1nc(C(C)(C)C)nc2c1nnn2Cc1ccccc1Cl)C(F)(F)F` [Example 215, 5-tert-Butyl-3-(2-chloro-benzyl)-7-((S)-2,2,2-trifluoro-1-methyl-ethoxy)-3H-[1,2,3]triazolo[4,5-d]pyrimidine], the EC50 at human CB2 receptors was 24.7 nM; at human CB1 receptors (setting [1]), > 10000 nM.
As to `Cc1nnc(Cn2nnc3c(N4CC5(COC5)C4)nc(C(C)(C)C)nc32)o1` [Example 181, 5-tert-Butyl-3-(5-methyl-[1,3,4]oxadiazol-2-ylmethyl)-7-(2-oxa-6-aza-spiro[3.3]hept-6-yl)-3H-[1,2,3]triazolo[4,5-d]pyrimidine], the EC50 on human CB2 receptors was 59.4 nM; on human CB1 receptors (setting [1]) it was > 10000 nM.
Consider `CC(C)(C)c1nc(N2CCC(F)(F)C2)c2nnn(CCc3ccncc3)c2n1` [Example 122, 5-tert-Butyl-7-(3,3-difluoro-pyrrolidin-1-yl)-3-(2-pyridin-4-yl-ethyl)-3H-[1,2,3]triazolo[4,5-d]pyrimidine], for which the figures for the EC50 on human CB2 receptors and on human CB1 receptors (setting [1]) were 1.3 nM and > 10000 nM, respectively.
For the compound `CC(C)(C)c1nc(N2CCC(c3ccccc3)C2)c2nnn(Cc3ccccc3Cl)c2n1` (centres unmarked) [Example 195, 5-tert-Butyl-3-(2-chloro-benzyl)-7-(3-phenyl-pyrrolidin-1-yl)-3H-[1,2,3]triazolo[4,5-d]pyrimidine], the EC50 on human CB2 receptors is 467 nM; at human CB1 receptors, > 10000 nM.
As for `CC(C)(C)c1nc(N2CCC(O)CC2)c2nnn(Cc3ccccc3Cl)c2n1` [Example 32, 1-[5-tert-Butyl-3-(2-chloro-benzyl)-3H-[1,2,3]triazolo[4,5-d]pyrimidin-7-yl]-piperidin-4-ol], the EC50 is 20.7 nM at human CB2 receptors and > 10000 nM on human CB1 receptors (setting [1]).
As for `CC(C)(C)c1nc(N2CC[C@@](C)(O)C2)c2nnn(Cc3ncccc3Cl)c2n1` [Example 224-b, (R)-1-(5-tert-butyl-3-((3-chloropyridin-2-yl)methyl)-3H-[1,2,3]triazolo[4,5-d]pyrimidin-7-yl)-3-methylpyrrolidin-3-ol], the EC50 on human CB2 receptors was 6.4 nM; on human CB1 receptors (setting [1]) it was > 10000 nM.
As to `CC(C)(C)c1nc(N2CCC(F)(F)C2)c2nnn(Cc3cccc(C(F)(F)F)c3Cl)c2n1` [Example 120, 5-tert-Butyl-3-(2-chloro-3-trifluoromethyl-benzyl)-7-(3,3-difluoro-pyrrolidin-1-yl)-3H-[1,2,3]triazolo[4,5-d]pyrimidine], the EC50 came to 0.7 nM on human CB2 receptors and 181 nM at human CB1 receptors (setting [1]).
On to `CC(C)(C)c1nc(N2CCC(F)(F)C2)c2nnn(Cc3ccccc3OC(F)(F)F)c2n1` [Example 82, 5-tert-Butyl-7-(3,3-difluoro-pyrrolidin-1-yl)-3-(2-trifluoromethoxy-benzyl)-3H-[1,2,3]triazolo[4,5-d]pyrimidine], for which the EC50 on human CB2 receptors was determined as 0.2 nM; on human CB1 receptors (setting [1]), 252 nM.
On to `CC(C)(C)c1nc(N2CCCCC2)c2nnn(Cc3ccccc3Cl)c2n1` [Example 2, 5-tert-Butyl-3-(2-chloro-benzyl)-7-piperidin-1-yl-3H-[1,2,3]triazolo[4,5-d]pyrimidine], for which the values for the EC50 at human CB2 receptors and on human CB1 receptors (setting [1]) were 1.6 nM and 555 nM, respectively.
Consider `CC(C)(C)c1nc(N2CCC(F)(F)C2)c2nnn(Cc3cccc(F)c3Cl)c2n1` [Example 89, 5-tert-Butyl-3-(2-chloro-3-fluoro-benzyl)-7-(3,3-difluoro-pyrrolidin-1-yl)-3H-[1,2,3]triazolo[4,5-d]pyrimidine], for which the concentration for a half-maximal effect (EC50) at human CB2 receptors stood at 0.3 nM; at human CB1 receptors (setting [1]) it was 463 nM.
In the case of `COCCn1nnc2c(N3CCC(F)(F)C3)nc(C(C)(C)C)nc21` [Example 62, 5-tert-Butyl-7-(3,3-difluoro-pyrrolidin-1-yl)-3-(2-methoxy-ethyl)-3H-[1,2,3]triazolo[4,5-d]pyrimidine], the 50% effective concentration (EC50) at human CB2 receptors is 3.3 nM; at human CB1 receptors (setting [1]) it was > 10000 nM.
For `CC(C)(C)c1nc(N2CC[C@H](O)[C@@H]2CO)c2nnn(Cc3nnnn3C3CC3)c2n1` [Example 166, (2S,3S)-1-[5-tert-Butyl-3-(1-cyclopropyl-1H-tetrazol-5-ylmethyl)-3H-[1,2,3]triazolo[4,5-d]pyrimidin-7-yl]-2-hydroxymethyl-pyrrolidin-3-ol], in that order: 18 nM and > 10000 nM.
As to `CC(C)(C)c1nc(N2CCOC(CO)C2)c2nnn(Cc3ccccc3Cl)c2n1` (centres unmarked) [Example 18, {4-[5-tert-Butyl-3-(2-chloro-benzyl)-3H-[1,2,3]triazolo[4,5-d]pyrimidin-7-yl]-morpholin-2-yl}-methanol], the values for the concentration giving a half-maximal response (EC50) at human CB2 receptors and at human CB1 receptors (setting [1]) were 46.6 nM and > 10000 nM, respectively.
Turning to `CC(C)(C)c1nc(N2CCC(F)(F)C2)c2nnn(Cc3cc(Cl)cnc3Cl)c2n1` [Example 99, 5-tert-Butyl-3-(2,5-dichloro-pyridin-3-ylmethyl)-7-(3,3-difluoro-pyrrolidin-1-yl)-3H-[1,2,3]triazolo[4,5-d]pyrimidine], the results for the 50% effective concentration (EC50) at human CB2 receptors and at human CB1 receptors (setting [1]) were 0.2 nM and 497 nM, respectively.
Consider `CC(C)(C)c1nc(N2CC[C@H](O)[C@@H]2CO)c2nnn(Cc3ccccc3Cl)c2n1` [Example 51, (2S,3S)-1-[5-tert-Butyl-3-(2-chloro-benzyl)-3H-[1,2,3]triazolo[4,5-d]pyrimidin-7-yl]-2-hydroxymethyl-pyrrolidin-3-ol], for which the results for the 50% effective concentration (EC50) at human CB2 receptors and on human CB1 receptors (setting [1]) were 2.4 nM and > 10000 nM, respectively.
`CC(C)(C)c1nc(N2CCOCC2)c2nnn(Cc3ccc(F)cc3Cl)c2n1` [Example 59, 5-tert-Butyl-3-(2-chloro-4-fluoro-benzyl)-7-morpholin-4-yl-3H-[1,2,3]triazolo[4,5-d]pyrimidine]: the EC50 at human CB2 receptors is 2.3 nM; at human CB1 receptors (setting [1]) it was > 10000 nM.
In the case of `CC(C)(C)c1nc(N2CC[C@H](O)[C@@H]2CO)c2nnn(Cc3cccnc3Cl)c2n1` [Example 172, (2S,3S)-1-[5-tert-Butyl-3-(2-chloro-pyridin-3-ylmethyl)-3H-[1,2,3]triazolo[4,5-d]pyrimidin-7-yl]-2-hydroxymethyl-pyrrolidin-3-ol], the values for the concentration for a half-maximal effect (EC50) on human CB2 receptors and at human CB1 receptors (setting [1]) were 4.1 nM and > 10000 nM, respectively.
For `CC(C)(C)c1nc(N2C[C@@H](O)[C@@H](O)C2)c2nnn(Cc3ccccc3Cl)c2n1` [Example 56, (3S,4R)-1-[5-tert-Butyl-3-(2-chloro-benzyl)-3H-[1,2,3]triazolo[4,5-d]pyrimidin-7-yl]-pyrrolidine-3,4-diol], the EC50 on human CB2 receptors is 16.5 nM; at human CB1 receptors (setting [1]) it was > 10000 nM.
For `CCn1nnc2c(N3CCC(F)(F)C3)nc(C(C)(C)C)nc21` [Example 61, 5-tert-butyl-7-(3,3-difluoropyrrolidin-1-yl)-3-ethyl-3H-[1,2,3]triazolo[4,5-d]pyrimidine], in that order: 13.2 nM and > 10000 nM.
Take `Cn1nnnc1Cn1nnc2c(N3CC4(COC4)C3)nc(C(C)(C)C)nc21` [Example 182, 5-tert-Butyl-3-(1-methyl-1H-tetrazol-5-ylmethyl)-7-(2-oxa-6-aza-spiro[3.3]hept-6-yl)-3H-[1,2,3]triazolo[4,5-d]pyrimidine]: the EC50 at human CB2 receptors was 13.9 nM; on human CB1 receptors (setting [1]) it was > 10000 nM.
`Cn1ncnc1Cn1nnc2c(N3CCC(F)(F)C3)nc(C(C)(C)C)nc21` [Example 132, 5-tert-Butyl-7-(3,3-difluoro-pyrrolidin-1-yl)-3-(2-methyl-2H-[1,2,4]triazol-3-ylmethyl)-3H-[1,2,3]triazolo[4,5-d]pyrimidine]: the EC50 was 0.7 nM on human CB2 receptors and > 10000 nM at human CB1 receptors (setting [1]).
